In patent US4777172A, “Pyrimidylalkylthio benzimidale compounds, pharmaceutical compositions and use” (Smith Kline & French Laboratories Limited, priority 1986, dated 1988):
pIC50: −log10 of the molar value. Where a name gives a salt, the structure may show the parent alone.

How the values were obtained:
[1] = test system: rabbit intact gastric glands (dibutyryl cAMP stimulated); assay: Aminopyrine (AP) accumulation in intact gastric glands; assay type: cell-based, New Zealand white rabbits; settings: Oryctolagus cuniculus, 0.5 h; 300 μM dibutyryl cAMP, 30 minutes at 37° C, pH 7.4; amount required to inhibit stimulated aminopyrine accumulation by 50%
Method: B. Aminopyrine (AP) accumulation in intact gastric glands
The effect of a single concentration (100 μm) of a compound of structure (I) on dibutyryl cAMP stimulated AP […] in rabbit intact gastric glands was determined. Preferred compounds of structure (I) were tested over a range of concentrations to determine the IC50 value.
(i) Preparation of intact gastric glands.
Intact gastric glands were prepared from New Zealand white rabbits by the method of Berghindh et al. (Acta. Physio. Scand. 96, 150, 1976). Gastric mucosal scrapings were digested at 37° C. for 45-60 min. with Collagenase (100 U, Type 1, Sigma), and glands harvested by coarse filtration and sedimentation.
Test compound was incubated with glands and 300 μM dibutyryl cAMP for 30 minutes at 37° C. Incubating medium contained 132.5 mM NaCl, 5.4 mM KCl, 1.0 mM NaH2 PO4, 5.0 mM Na2 HPO4, 1.2 mM MgSO4, 1.0 mM CaCl2, 11.1 mM glucose, 2.0 mg/ml rabbit albumin, 10 μg/ml phenol red, approximately 0.3 uM[^14 C] […] (110 mCi/mmole), pH 7.4.
After incubation, glands were centrifuged and the supernatant removed. The glands were dried, weighed and dissolved in NaOH. The distribution of radioactivity between the supernatant and glands is then used to calculate the AP ratio after the method of Berglindh et al. (Acta. Physiol. Scand. 97, 401, 1976).
The IC50 value is the amount of compound required to inhibit the stimulated accumulation of aminopyrine by 50%.

[2] = test system: histamine stimulated gastric acid secretion; assay: Rat: Lumen perfused stomach (histamine stimulated gastric acid secretion); assay type: in vivo
Source text: C. Rat: Lumen perfused stomach (histamine stimulated gastric acid secretion).
Using a modification of the procedure described by Ghosh and Schild (Br. J. Pharmacology, 13, 54, 1958), ED50 values after either intraduodenal (i.d) or intravenous (i.v) administration were obtained as follows: […]

H^+ -K^+ -ATPase = assay: K^+ Stimulated ATPase Activity; assay type: biochemical, pig
Method: A. K^+ Stimulated ATPase Activity
The effects of a single high concentration (1 mM) of a compound of structure (I) on H^+ -K^+ -ATPase were determined at pH 6.1 and pH 7.4. Preferred compounds of structure (I) were also tested over a range of concentrations to determine IC50 values at pH 6.1 and 7.4.
(i) Preparation of Lyophilised Gastric Vesicles (H^+ -K^+ -ATPase)
H^+ -K^+ -ATPase was prepared from the lyophilised gastric vesicles of pig fundic mucosa after the method of Saccomani et. al. (Biochem and Biophys. Acta., 465, 311, 1977).
(ii) K^+ Stimulated ATPase Activity
Compounds of structure (I) were pre-incubated with H^+ -K^+ -ATPase preparation 30 μg protein/ml from (i) in 10 mM Pipes/Tris buffer pH 6.1 and pH 7.4.
After 30 minutes at 37° the pre-incubation was diluted 5-fold with assay buffer to start the ATPase reaction. The conditions in the assay are 100 mM Pipes/Tris, 2 mM MgCl2, 10 mM KCl, 5 μg/ml nigericin, 2 mM Na2 ATP, pH 7.0. After an incubation at 37° for 15 minutes the inorganic phosphate released was determined by the method of Yoda & Hokin (Biochem. Biophys. Res. Com. 40, 880, 1970).
The effect of the same concentration of compound of structure (I) (pre-incubated with H^+ -K^+ -ATPase preparation at pH 7.4 as described above) on the recovery of 100 nmole of inorganic phosphate was also determined. […]

[3] = i.d. (intraduodenal) administration

| SMILES | pIC50 [1] | further results |
| --- | --- | --- |
| COc1ccc2[nH]c([S+]([O-])Cc3nccc(N4CCCCC4)n3)nc2c1 (stereo not shown) [Example 3, 5-methoxy-2-(4-piperidino-2-pyrimidinylmethylsulphinyl)-(1H)-benzimidazoleCalcium Salt 2.5H2 O] | 4.80 | ED50 ([2]; iv, i.v. administration): 1.4 µmol/kg; inhibition of potassium stimulated H^+ -K^+ ATPase (H^+ -K^+ -ATPase; pre-incubation pH 6.1, 30 minutes at 37°): found to inhibit; inhibition of potassium stimulated H^+ -K^+ ATPase (H^+ -K^+ -ATPase; pre-incubation pH 7.4, 30 minutes at 37°): found to inhibit |
| COc1ccc2[nH]c([S+]([O-])Cc3ncnc(N4CCCCC4)c3C)nc2c1 (stereo not shown) [Example 11, 5-methoxy-2-(5-methyl-6-piperidino-4-pyrimidinylmethylsulphinyl)-(1H)-benzimidazole] | 5.21 | – |
| COc1ccc2[nH]c([S+]([O-])Cc3ncnc(N(C)C)c3C)nc2c1 (stereo not shown) [Example 17, 5-methoxy-2-(5-methyl-6-dimethylamino-4-pyrimidinylmethylsulphinyl)-(1H)-benzimidazole] | 5.48 | – |
| COc1ccc2[nH]c([S+]([O-])Cc3ncnc(N4CCOCC4)c3C)nc2c1 (stereo not shown) [Example 15, 5-methoxy-2-(5-methyl-6-morpholino-4-pyrimidinylmethylsulphinyl)-(1H)-benzimidazole] | 5.30 | – |

The next molecules have a higher pIC50 [1] than those just listed; values first:

| pIC50 [1] | SMILES | further results |
| --- | --- | --- |
| 6.49 | COc1ccc2[nH]c([S+]([O-])Cc3ncnc(N4CCCC4)c3C)nc2c1 (stereo not shown) [Example 13, 5-methoxy-2-(5-methyl-6-pyrrolidino-4-pyrimidinylmethylsulphinyl)-(1H)-benzimidazole] | ED50 [2, 3]: 2.8 µmol/kg |
| 5.92 | COc1ccc2[nH]c([S+]([O-])Cc3nccc(N(C)C)n3)nc2c1 (stereo not shown) [Example 9, 5-methoxy-2-(4-dimethylamino-2-pyrimidinylmethylsulphinyl)-(1H)-benzimidazole] | ED50 [2, 3]: 2.4 µmol/kg |
| 5.58 | COc1ccc2[nH]c([S+]([O-])Cc3cc(N4CCCCC4)ncn3)nc2c1 (stereo not shown) [Example 19, 5-methoxy-2-(6-piperidino-4-pyrimidinylmethylsulphinyl)-(1H)-benzimidazole] | – |
| 5.61 | COc1ccc2[nH]c([S+]([O-])Cc3nccc(N4CCCC4)n3)nc2c1 (stereo not shown) [Example 7, 5-methoxy-2-(4-pyrrolidino-2-pyrimidinylmethylsulphinyl)-(1H)-benzimidazole] | – |
